Results published in US4255183A, “Substituted phenyl urea and herbicides for use in paddy field” (Hokko Chemical Industry Co., Ltd., priority 1977, dated 1981).
Read-outs that look alike come from different tables or passages of the source.

Experiments:
[1] = system: Echinochloa crus-galli var. oryzicola; assay: Test Example 2: concrete pot test on killing effect, Echinochloa crus-galli var. oryzicola; type: in vivo; details: for inhibition at 1500 g/ha / inhibition at 3000 g/ha / inhibition at 9000 g/ha / inhibition at 1000 g/ha: Echinochloa crus-galli, 720 h
Experimental: (§1) In a Wagner pot of 1/500 are, paddy field soil (alluvial soil) was placed and 50 seeds of Echinochloa crus-galli var. oryzicola and 30 seeds of paddy rice were seeded in the surface layer of said soil and the submerging depth was kept at about 1 cm. When Echinochloa crus-galli var. oryzicola reached at the one leaf stage and 5-leaf stage, the emulsion of a predetermined concentration, prepared according to Example 4 was added dropwise. After 30 days from the treatment with the chemical, dry weights of Echinochloa crus-galli var. oryzicola and paddy rice were measured and the inhibition rate was calculated with reference to untreated area. [formula]
(§2) In a concrete pot of 1/400 are (50 cm×50 cm), paddy field soil (alluvial soil) was placed and 200 seeds of Echinochloa crus-galli var. oryzicola were seeded in 10 surface layer of said soil and the soil was submerged at about 3 cm depth. Before emergence of Echinochloa crus-galli var. oryzicola, paddy rice at 2.5-leaf stage (Asahi species) was transplanted at the rate of 8 stubs per pot, planting 3 seedlings per stub. At the one-leaf stage (3.5 leaves stage of paddy rice) and 5 leaves stage (7 leaves stage of paddy rice) of Echinochloa crus-galli var. oryzicola, the granule prepared according to Example 1 was applied. […] 30 Days after the treatment with the chemical, examination was made in the similar manner as Test Example 1 to obtain results as shown in Table 2.
(§3) In the table, as the comparative chemicals CPN, Benthiocarb, Molinate and Simetryne, those commercially available were used and the comparative chemicals A and B (as mentioned before) used were prepared according to the process for preparing the compound of this invention.

paddy rice [2] = assay: whole plant or invertebrate; type: in vivo, paddy rice (Asahi species); details: for inhibition at 1500 g/ha / inhibition at 3000 g/ha / inhibition at 9000 g/ha / inhibition at 1000 g/ha: Oryza sativa, 720 h
Experimental: as §1, §2, §3

[3] = system: Echinochloa crus-galli var. oryzicola; assay: Test Example 4: field test in submerged directly seeded paddy field, Echinochloa crus-galli var. oryzicola; type: in vivo; details: for inhibition at 3000 g/ha: Echinochloa crus-galli, 504 h, 300 g/10 are, emulsion, 2- to 3-leaf stage, 21 days after application, read-out: Inhibition (%) of E. crus-galli var. oryzicola
Experimental: as §1
(§4) In a 10 m^2 paddy field, 30 g of Echinochloa crus-galli var. oryzicola seeds were seeded at the time of puddling and the depth of submerging was kept at 3-5 cm. 3 Days after the puddling, 50 g of paddy rice at the emergence stage (Asahi species) were seeded. When Echinochloa crus-galli var. oryzicola and paddy rice reached a 2- to 3-leaf stage, a predetermined dose of the emulsion prepared according to Example 4 was applied uniformly by means of a manual spraying machine. Test results were examined 21 days after the application of the chemicals in the similar manner as in Test Example 1.
(§5) The comparative chemical 1 used was that commercially available and the comparative chemical 2 used was prepared according to Example 4.

paddy rice [4] = assay: Test Example 4: field test in submerged directly seeded paddy field, paddy rice; type: in vivo, paddy rice (Asahi species); details: Oryza sativa, 504 h; 300 g/10 are, emulsion, 2- to 3-leaf stage, 21 days after application
Experimental: as §1, §4, §5

Bulrush = assay: Test Example 5: Wagner pot test, herbicidal effect on Bulrush; type: in vivo
Experimental: (§6) In a 1/7500 are Wagner pot, sieved paddy field soil (alluvial soil) was charged. Thereafter, in the center portion of the pot, 2 roots of paddy rice (Asahi species) at the 2- to 3-leaf stage were transplanted and 20 seeds of Bulrush per pot were seeded in the surface of the above soil. The pot was submerged at the depth of about 2 cm. The other Dopatrium junceum and umbrella plant were generated naturally. After seeding, when each of the weeds reached the same leaf age as defined in Table 5 given herein, a predetermined concentration of the emulsion prepared according to Example 4 was applied dropwise on the surface of the pot. The test was carried out by repeating the same test three times per area and the results were determined 20 days after the application of the chemicals with regard to the herbicidal effect and chemical injury on paddy rice on the basis of the evaluation index as shown below.
(§7) As the comparative chemicals Molinate, Benthiocarb and DCMU, those commercially available were used.
(§8) In the above table, the inhibition rate was calculated according to the method as described in Test Example 1.

Dopatrium junceum = assay: Test Example 5: Wagner pot test, herbicidal effect on Dopatrium junceum; type: in vivo
Experimental: as §6, §7, §8

Umbrella plant = assay: Test Example 5: Wagner pot test, herbicidal effect on umbrella plant; type: in vivo; details: 20 days after application
Experimental: as §6, §7, §8

paddy rice [5] = assay: Test Example 5: Wagner pot test, chemical injury on paddy rice; type: in vivo, paddy rice (Asahi species); further: key: 5: Completely killed; 4: Considerably injured; 3: Moderately injured; 2: A little injured; 1: Slightly injured; 0: Not injured
Experimental: as §6, §7

[6] = system: Echinochloa crus-galli var. oryzicola; assay: Test Example 1: pot test on selectivity, inhibition of Echinochloa crus-galli var. oryzicola; type: in vivo; details: for inhibition at 750 g/ha / inhibition at 1500 g/ha / inhibition at 3000 g/ha / inhibition at 6000 g/ha / inhibition at 9000 g/ha: Echinochloa crus-galli, 720 h
Experimental: as §1
(§9) The comparative chemicals used, i.e. DCMU and Linuron, were those commercially available, and the comparative chemicals A and B used were prepared according to the process for formulating the compound of this invention.

paddy rice [7] = assay: Test Example 1: pot test on selectivity, inhibition of paddy rice; type: in vivo; details: for inhibition at 750 g/ha / inhibition at 1500 g/ha / inhibition at 3000 g/ha / inhibition at 6000 g/ha / inhibition at 9000 g/ha: Oryza sativa, 720 h
Experimental: as §1, with “When Echinochloa crus-galli var. oryzicola reached at the one leaf stage and 5-leaf stage, the emulsion of a predetermined concentration, prepared according to Example 4 was added dropwise.” left out
as §9

[8] = system: Echinochloa crus-galli var. oryzicola; assay: Test Example 3: field test in transplanted paddy field, Echinochloa crus-galli var. oryzicola; type: in vivo; details: farm test in transplanted paddy field
Experimental: as §1
In a 10 m^2 paddy field, young seedlings of paddy rice (Asahi species) at the 2,5-leaf stage were transplanted 30 days after the puddling the submerging at the depth of 3-5 cm. 25 Days after the transplantation, when Echinochloa crus-galli var. oryzicola reached 4-leaf stage, a predetermined dose of the granule prepared according to Example 1 was applied. Test results were examined 60 days after the transplantation of paddy rice in the similar manner as in Test Example 1.
Comparative chemicals used were all those commercially available and in the case of the comparative chemical 2, CNP was applied 3 days after the transplantation of paddy rice and after 25 days a mixture of Benthiocarb and Simetryne was applied.

various weeds = details: known upland herbicides; cited from earlier work
paddy rice [9] = details: known upland herbicides; cited from earlier work
[10] = read-out: Inhibition (%) by treatment at 1-leaf stage of E. crus-galli var. oryzicola, E. crus-galli var. oryzicola
[11] = read-out: Inhibition (%) by treatment at 5-leaf stage of E. crus-galli var. oryzicola, E. crus-galli var. oryzicola
[12] = read-out: Inhibition (%) by treatment at 1-leaf stage of E. crus-galli var. oryzicola, paddy rice
[13] = read-out: Inhibition (%) by treatment at 5-leaf stage of E. crus-galli var. oryzicola, paddy rice
[14] = 300 g/10a, leaf age 3, 20 days after application
[15] = 600 g/10a, leaf age 3, 20 days after application
[16] = 600 g/10a, leaf age 3-5, 20 days after application
[17] = 600 g/10a, leaf age 2, 20 days after application
[18] = 600 g/10a, leaf age 2 (first group of columns)
[19] = 600 g/10a, leaf age 2 (second group of columns)
[20] = 600 g/10a, 3 tillers, 20 days after application
[21] = versus 3-(4-(3-chloro-2-butenyloxy)phenyl)-1,1-dimethyl urea
[22] = read-out: Inhibition (%) by treatment at 1-leaf stage, E. crus-galli var. oryzicola
[23] = read-out: Inhibition (%) by treatment at 5-leaf stage, E. crus-galli var. oryzicola
[24] = read-out: Inhibition (%) by treatment at 1-leaf stage, paddy rice
[25] = read-out: Inhibition (%) by treatment at 5-leaf stage, paddy rice

## CCSC(=O)N1CCCCCC1 [Molinate, s-ethyl hexahydro-1H-azepine-1-carbothioate]
[1]; [10]
  inhibition at 1500 g/ha: 86%
  inhibition at 3000 g/ha: 100%
  inhibition at 9000 g/ha: 100%
[1]; [11]
  inhibition at 1500 g/ha: 0%
  inhibition at 3000 g/ha: 13%
  inhibition at 9000 g/ha: 31%
Paddy rice [2]; [12]
  inhibition at 1500 g/ha: 0%
  inhibition at 3000 g/ha: 8%
  inhibition at 9000 g/ha: 36%
Paddy rice [2]; [13]
  inhibition at 1500 g/ha: 0%
  inhibition at 3000 g/ha: 0%
  inhibition at 9000 g/ha: 8%
[3]
  inhibition at 3000 g/ha: 83%
Paddy rice [4]
  inhibition at 3000 g/ha: 12%
Bulrush; [14]
  Weed kill degree, Bulrush: 0 (less than 39)
Bulrush; 300 g/10a, leaf age 3-5, 20 days after application
  Weed kill degree, Bulrush: 1 (40-59)
Bulrush; [15]
  Weed kill degree, Bulrush: 5 (100)
Bulrush; [16]
  Weed kill degree, Bulrush: 2 (60-79)
Dopatrium junceum; 300 g/10a, leaf age 2, 20 days after application
  Weed kill degree, Dopatrium junceum: 2 (60-79)
Dopatrium junceum; [14]
  Weed kill degree, Dopatrium junceum: 4 (90-99)
Dopatrium junceum; [17]
  Weed kill degree, Dopatrium junceum: 5 (100)
Dopatrium junceum; [15]
  Weed kill degree, Dopatrium junceum: 5 (100)
Umbrella plant; 300 g/10a, leaf age 2 (first group of columns)
  Weed kill degree, Umbrella plant: 1 (40-59)
Umbrella plant; 300 g/10a, leaf age 2 (second group of columns)
  Weed kill degree, Umbrella plant: 4 (90-99)
Umbrella plant; [18]
  Weed kill degree, Umbrella plant: 1 (40-59)
Umbrella plant; [19]
  Weed kill degree, Umbrella plant: 5 (100)
Paddy rice [5]; 300 g/10a, 3 tillers, 20 days after application
  Chemical injury on paddy rice: 0
Paddy rice [5]; [14]
  Chemical injury on paddy rice: 0
Paddy rice [5]; [20]
  Chemical injury on paddy rice: 0
Paddy rice [5]; [15]
  Chemical injury on paddy rice: 0

## CC=CCOc1ccc(NC(=O)N(C)C)cc1 [the compound of the invention, 3-(4-crotyloxyphenyl)-1,1-dimethyl urea]
[6]; as compared with CBPDU
  power for killing Echinochloa crus-galli var. oryzicola at the 5-leaf stage: more increased
[6]; [21]
  herbicidal activity against Echinochloa crus-galli var. oryzicola at 5-leaf stage: superior
[6]; versus a compound disclosed in Japanese Pat. No. 2329/1973
  herbicidal activity against Echinochloa crus-galli var. oryzicola: superior herbicidal activity
Paddy rice [7]; as compared with CBPDU
  Chemical injury on paddy rice: more decreased
Paddy rice [7]; [21]
  chemical injury: superior
  selectivity: selectivity over a wide range
[1]; 5-leaf stage
  killing of Echinochloa crus-galli var. oryzicola at 5-leaf stage: completely kill
[1]; compared with the known herbicides
  herbicidal activity against Echinochloa crus-galli var. oryzicola at 1-leaf stage: similarly high herbicidal activity
Paddy rice [2]; in vivo
  Chemical injury on paddy rice: no chemical injury on paddy rice
[8]
  killing of Echinochloa crus-galli var. oryzicola not killed by conventional systematic treatment: completely killed
[3]; submerged direct seeding
  killing of Echinochloa crus-galli var. oryzicola in submerged direct seeding cultivation: selectively kill

## CCN(CC)C(=O)SCc1ccc(Cl)cc1 [Benthiocarb, 4-chlorobenzyl-N,N-diethylthiolcarbamate]
[1]; [10]
  inhibition at 1000 g/ha: 82%
  inhibition at 3000 g/ha: 100%
  inhibition at 9000 g/ha: 100%
[1]; [11]
  inhibition at 1000 g/ha: 0%
  inhibition at 3000 g/ha: 6%
  inhibition at 9000 g/ha: 23%
Paddy rice [2]; [12]
  inhibition at 1000 g/ha: 0%
  inhibition at 3000 g/ha: 10%
  inhibition at 9000 g/ha: 46%
Paddy rice [2]; [13]
  inhibition at 1000 g/ha: 0%
  inhibition at 3000 g/ha: 0%
  inhibition at 9000 g/ha: 10%
[3]
  inhibition at 3000 g/ha: 76%
Paddy rice [4]
  inhibition at 3000 g/ha: 15%
Bulrush; [15]
  Weed kill degree, Bulrush: 2 (60-79)
Bulrush; [16]
  Weed kill degree, Bulrush: 4 (90-99)
Dopatrium junceum; [17]
  Weed kill degree, Dopatrium junceum: 5 (100)
Dopatrium junceum; [15]
  Weed kill degree, Dopatrium junceum: 5 (100)
Umbrella plant; [18]
  Weed kill degree, Umbrella plant: 5 (100)
Umbrella plant; [19]
  Weed kill degree, Umbrella plant: 5 (100)
Paddy rice [5]; [20]
  Chemical injury on paddy rice: 0
Paddy rice [5]; [15]
  Chemical injury on paddy rice: 2

## CON(C)C(=O)Nc1ccc(Cl)c(Cl)c1 [Linuron, 3-(3,4-dichlorophenyl)-1-methoxy-1-methyl urea]
[6]; [22]
  inhibition at 750 g/ha: 82%
  inhibition at 1500 g/ha: 100%
  inhibition at 3000 g/ha: 100%
  inhibition at 6000 g/ha: 100%
  inhibition at 9000 g/ha: 100%
[6]; [23]
  inhibition at 750 g/ha: 72%
  inhibition at 1500 g/ha: 100%
  inhibition at 3000 g/ha: 100%
  inhibition at 6000 g/ha: 100%
  inhibition at 9000 g/ha: 100%
Paddy rice [7]; [24]
  inhibition at 750 g/ha: 81%
  inhibition at 1500 g/ha: 100%
  inhibition at 3000 g/ha: 100%
  inhibition at 6000 g/ha: 100%
  inhibition at 9000 g/ha: 100%
Paddy rice [7]; [25]
  inhibition at 750 g/ha: 53%
  inhibition at 1500 g/ha: 100%
  inhibition at 3000 g/ha: 100%
  inhibition at 6000 g/ha: 100%
  inhibition at 9000 g/ha: 100%
Paddy rice [7]; in vivo
  selectivity between Echinochloa crus-galli var. oryzicola and paddy rice: kill not only Echinochloa crus-galli var. oryzicola but also paddy rice
Various weeds
  herbicidal activity against various weeds: strong herbicidal activity
Paddy rice [9]
  chemical injury to paddy rice: strong chemical injury to paddy rice
